Values joined by “and” are separate entries in the source; they are usually repeats but may differ in a detail not shown here. Identical values can stand only once. “Also recorded” adds a separate entry of the source.
Assays:
Assay type in all cases: in vivo, Balb C mice
[1] = tested on: collagen antibody-induced arthritis; test: Mouse CAIA: clinical score; parameters: key to Clinical Score, Summary (significance): ns: = not significant; *: = P < 0.05; **: = P < 0.01; ***: = P < 0.001
Description: The mice were treated with ArthritoMAb (anti-collagen) antibody cocktail (2 mg, i.v.) on day 1, followed 7 days later with an injection of LPS (50 μg, i.p.). On day 8, hind paw volumes were measured for each animal and distributed to various treatment groups.
Factor H was formulated in 20 mM Citrate, 150 mM NaCl, pH=6. […] Ethanercept was formulated as Enbrel™ in saline. Vehicle was formulated in 20 mM Citrate, 150 mM NaCl, pH=6. […] The dosing volume for Factor H and BX12 was 25 mL/kg (0.500 mL/20 g mouse) and adjusted accordingly for body weight.
(§1) Dosing with the different agents was started on day 8 as described in Table 3.

[2] = tested on: collagen antibody-induced arthritis; test: Mouse CAIA: ankle histology scores (H & E); parameters: key to Score From H & E: Inflammation: 0: normal; 1: minimal infiltration of inflammatory cells in periarticular tissue; 2: mild infiltration; 3: moderate infiltration with moderate edema; 4: marked infiltration with marked edema; 5: severe infiltration with severe edema; key to Exostosis, Summary (significance) / Composite, Summary (significance) / Pannus, Summary (significance) / Cartilage, Summary (significance) / Inflammation, Summary (significance): ns: = not significant; *: = P < 0.05; **: = P < 0.01; ***: = P < 0.001; Composite Biohistopathology Score, group value / Composite Biohistopathology Score: scale not given here
Description: (§2) Balb C mice (n=10 per cohort) were used to determine the efficacy of Factor H (FH) during […]. The mice were treated with ArthritoMAb (anti-collagen) antibody cocktail (2 mg, i.v.) on day 1, followed 7 days later with an injection of LPS (50 μg, i.p.). On day 8, hind paw volumes were measured for each animal and distributed to various treatment groups.
as §1
(§3) Hind paw volumes were measured on day 8, 11, 12, 13, 15, 19 and 22 (endpoint). The age at start date was 7 to 9 weeks. Body weights were measured bi-weekly to the endpoint (Table 4). At the endpoint, tissue samples were processed for histology and submitted to a pathologist for independent analysis. Sampling 1 was performed at the endpoint. The hind limbs were preserved in 10% formalin. Sampling 2 was performed at the endpoint for group 4 animals. Blood was collected by terminal cardiac puncture. The blood was processed for anti-coagulant. The kidneys were additionally preserved in formalin and followed with 70% EtOH. Samples were scored for inflammation, pannus (granulation tissue), cartilage damage, bone resorption and exostosis (Table 5).

[3] = tested on: collagen antibody-induced arthritis; test: Mouse CAIA: ankle histology scores (H & E); parameters: key: 0: normal; 1: minimal; 2: mild; 3: moderate; 4: marked; 5: severe; conditions: individual animal, score 0-5, endpoint day 22, listed as Group 4
Description: as §2, §1, §3

[4] = tested on: collagen antibody-induced arthritis; test: Mouse CAIA: ankle histology scores (H & E); parameters: key: 0: normal; 1: minimal infiltration of pannus in cartilage and subchondral bone; 2: mild infiltration; 3: moderate infiltration; 4: marked infiltration; 5: severe infiltration; conditions: individual animal, score 0-5, endpoint day 22, listed as Group 4
Description: as §2, §1, §3

[5] = tested on: collagen antibody-induced arthritis; test: Mouse CAIA: ankle histology scores (H & E); parameters: key: 0: normal; 1: minimal infiltration of inflammatory cells in periarticular tissue; 2: mild infiltration; 3: moderate infiltration with moderate edema; 4: marked infiltration with marked edema; 5: severe infiltration with severe edema; conditions: individual animal, score 0-5, endpoint day 22, listed as Group 4
Description: as §2, §1, §3

[6] = tested on: collagen antibody-induced arthritis; test: Mouse CAIA: ankle histology scores (H & E); parameters: key: 0: normal; 1: minimal to mild loss of staining density with no obvious chondrocyte loss or collagen disruption; 2: mild loss of staining density with focal mild (superficial) chondrocyte loss and/or collagen disruption; 3: moderate loss of staining density with multifocal moderate (depth to middle zone) chondrocyte loss and/or collagen disruption; 4: marked loss of staining density with multifocal marked (depth to deep zone) chondrocyte loss and/or collagen disruption; 5: severe diffuse loss of staining density with multifocal severe (depth to tide mark) chondrocyte loss and/or collagen disruption; conditions: individual animal, score 0-5, endpoint day 22, listed as Group 4
Description: as §2, §1, §3

[7] = Vehicle vs agent, Dunn's Multiple Comparison Test
[8] = ankle, group mean ± spread, 10 animals, score 0-5
[9] = histopathology score, graded 1-5, hind limbs at endpoint, group value

For Factor H, the “Clinical Score, Difference in rank sum” value [1, 7] was 8.3, the “Clinical Score, Summary (significance)” value [1, 7] was “ns” and the “Max Clin Score, Mean” value ([1]; group mean, n=10) was 33.40. For the same substance, the “Clinical Score, Day of Study 8, Mean” value ([1]; group mean, n=10, day 8 (start of dosing)) was 3.00, the “Clinical Score, Day of Study 11, Mean” value ([1]; group mean, n=10, day 11) was 14.60 and the “Clinical Score, Day of Study 12, Mean” value ([1]; group mean, n=10, day 12) was 33.40. The “Clinical Score, Day of Study 13, Mean” value ([1]; group mean, n=10, day 13) was 23.60, the “Clinical Score, Day of Study 16, Mean” value ([1]; group mean, n=10, day 16 (Jul. 1, 2011)) was 16.90 and the “Clinical Score, Day of Study 19, Mean” value ([1]; group mean, n=10, day 19) was 18.20. The “Clinical Score, Day of Study 22, Mean” value ([1]; group mean, n=10, day 22 (endpoint)) was 18.80, the “Day (of Max Clin Score)” value ([1]; individual animal, day of study) was 12 and the “Max Clin Score” value ([1]; individual animal, maximum over days 8 to 22, listed as BX12) was 37 and 42 (2×) and 20 and 21 and 49 and 30 and 32 and 16 and 45. The “Clinical Score, Day of Study 8” value ([1]; individual animal, score 0-60, day 8 (start of dosing), listed as BX12) was 5 (3×) and 0 (6×) and 15, the “Clinical Score, Day of Study 11” value ([1]; individual animal, score 0-60, day 11, listed as BX12) was 25 and 10 (2×) and 15 (2×) and 5 and 18 and 21 (2×) and 6 and the “Clinical Score, Day of Study 12” value ([1]; individual animal, score 0-60, day 12, listed as BX12) was 37 and 42 (2×) and 20 and 21 and 49 and 30 and 32 and 16 and 45. For the same substance, the “Clinical Score, Day of Study 13” value ([1]; individual animal, score 0-60, day 13, listed as BX12) was 18 and 37 and 34 and 20 (2×) and 10 and 40 and 26 and 15 and 16, the “Clinical Score, Day of Study 16” value ([1]; individual animal, score 0-60, day 16 (Jul. 1, 2011), listed as BX12) was 13 and 21 and 15 (2×) and 10 and 1 and 43 and 25 and 6 and 20 and the “Clinical Score, Day of Study 19” value ([1]; individual animal, score 0-60, day 19, listed as BX12) was 25 and 31 and 20 (2×) and 10 (3×) and 0 and 46 and 7. For the same substance, the “Clinical Score, Day of Study 22” value ([1]; individual animal, score 0-60, day 22 (endpoint), listed as BX12) was 24 and 31 and 21 and 10 and 1 and 39 and 15 and 26 and 5 and 16, the “Day (of Max Clin Score), Mean” value ([1]; listed as 'Mean', n=10, day of study) was 12.00 and the “clinical response / clinical score” value ([1]; result in words (Tables 6 and 7, FIG. 10), listed as FH) was “improved clinical response compared to vehicle control animals; also recorded: improves more over Etanercept at later time points (days 15 to 22); also recorded: lower clinical score compared to both vehicle and Etanercept”. The “Mean Maximum Clinical Score” value ([1]; scored from 0 to 60 (15/limb), sum of 4 limbs, vehicle 45.4) was 33.4^ns, the “Cartilage, Difference in rank sum” value [2, 7] was −0.75 and the “Cartilage, Summary (significance)” value [2, 7] was “ns”. The “Composite, Difference in rank sum” value [2, 7] was 3.25, the “Composite, Summary (significance)” value [2, 7] was “ns” and the “Exostosis, Difference in rank sum” value [2, 7] was 11.5. The “Exostosis, Summary (significance)” value [2, 7] was “* (= P < 0.05)”, the “Inflammation, Difference in rank sum” value [2, 7] was 6.45 and the “Inflammation, Summary (significance)” value [2, 7] was “ns”. For the same substance, the “Pannus, Difference in rank sum” value [2, 7] was 1.9, the “Pannus, Summary (significance)” value [2, 7] was “ns” and the “Composite Biohistopathology Score, group value” ([2]; ankle, group mean ± spread, 10 animals) was 3.1 ± 1.2. The “Score From H & E: Bone Resorption, group value” [2, 8] was 0.3 ± 0.2, the “Score From H & E: Cartilage Damage, group value” [2, 8] was 0.6 ± 0.2 and the “Score From H & E: Inflammation, group value” [2, 8] was 1.0 ± 0.3. The “Score From H & E: Pannus, group value” [2, 8] was 0.9 ± 0.3, the “Score From H & E: Periosteal/Exostotic Changes, group value” [2, 8] was 0.3 ± 0.3 and the “Composite Biohistopathology Score” value ([2]; ankle, individual animal, endpoint day 22, listed as Group 4) was 1 (3×) and 4 and 5 and 2 and 0 (2×) and 13 and 3. The “Score From H & E: Inflammation” value ([2]; ankle, individual animal, score 0-5, endpoint day 22, listed as Group 4) was 0 (4×) and 1 (3×) and 2 (2×) and 3, the “Composite Score” value ([2]; histopathology composite, hind limbs at endpoint, group value) was 3.1 ± 1.2^ns and the “Bone Resorption” value [2, 9] was 0.3 ± 0.2^ns. The “Cartilage Damage” value [2, 9] was 0.6 ± 0.2^ns, the Exostosis [2, 9] was 0.3 ± 0.3 and the Inflammation [2, 9] was 1.0 ± 0.3^ns. The Pannus [2, 9] was 0.9 ± 0.3^ns, the histopathology ([2]; result in words (Table 8, FIG. 11), listed as FH) was “inhibits exostosis; also recorded: trend toward improved inflammation and bone resorption” and the “Score From H & E: Bone Resorption” value [3] was 1 and 2. The “Score From H & E: Periosteal/Exostotic Changes” value [3] was 3, the “Score From H & E: Pannus” value [4] was 1 (4×) and 3 and the “Score From H & E: Bone Resorption” value [5] was 0. The “Score From H & E: Cartilage Damage” value [5] was 0, the “Score From H & E: Pannus” value [5] was 2 and 0 (4×) and the “Score From H & E: Periosteal/Exostotic Changes” value [5] was 0. The “Score From H & E: Cartilage Damage” value [6] was 1 (4×) and 2.

From US9248162B2, “Factor H for treatment of rheumatoid arthritis” (Baxter International Inc., priority 2013, dated 2016)
